Key:
Assay type in all cases: physicochemical
[1] = Viscosity, Brookfield DVI cone and plate viscometer; conditions: 21.7° C.; neat MIL dried 48 hours under vacuum
Procedure: A Brookfield DVI cone and plate viscometer equipped with a CPA-51Z cone spindle was employed to obtain viscosity measurements at […] using approximately 0.5 g of each MIL after extensive drying for 48 hours under vacuum. Viscosity measurements were conducted at 21.7° C. for 15 lanthanide and transition metal MILs examined in this study.
Viscosity measurements were conducted at 21.7° C. for 15 lanthanide and transition metal MILs examined in this study.

[2] = Effective magnetic moment from magnetic susceptibility balance (MSB); conditions: per formula unit
Procedure: Magnetic properties were analyzed using a magnetic susceptibility balance (MSB, Sherwood Scientific, Cambridge, UK) and a Quantum Design Superconducting Quantum Interference Device (SQUID) magnetometer (MPMS XL-7). The magnetic properties of transition metal MILs were further studied using a SQUID magnetometer to confirm their paramagnetic nature as well as if any magnetic transition occurs in the samples.
Magnetic susceptibility (XM) was calculated through Equation (1).
Effective magnetic moment (μeff) was calculated through Equation (2). In Equation (2), T represents the temperature at which the magnetic susceptibility measurements were conducted.
15 MILs incorporating rare-earth and transition metals were examined using a magnetic susceptibility balance (MSB).

[3] = Solubility of MILs in organic solvents and water
Source text: The solubility of lanthanide and transition metal MILs was investigated in popular traditional organic solvents. […]
The solubility of lanthanide and transition metal MILs was investigated in popular traditional organic solvents.

[4] = Thermal stability, MIL as GC stationary phase with FID; conditions: exponential increase in response beyond 2,000 pA
Procedure: (§1) The thermal stability of MILs was measured from 40 to 350° C. at a ramp rate of 5° C. min^−1 by performing thermogravimetric analysis (TGA) using a NETZSCH STA 449 F1 Jupiter thermal analyzer (Selb, Germany). To further investigate the thermal stability of MILs using a more sensitive technique, the solvents were employed as a gas chromatographic (GC) stationary phase and subjected to an oven temperature program from 40 to 200° C. at a ramp rate of 1° C. min^−1 and decomposition/degradation products detected using an ultra-sensitive flame ionization detector (FID), with all measurements being performed on an Agilent Technologies 7890B gas chromatograph (Santa Clara, CA, USA).
To further investigate the thermal stability of MILs using a more sensitive technique, the solvents were employed as a gas chromatographic (GC) stationary phase and subjected to an oven temperature program from 40 to 200° C. at a ramp rate of 1° C. min^−1 and decomposition/degradation products detected using an ultra-sensitive flame ionization detector (FID).

[5] = Thermal stability by thermogravimetric analysis (TGA); conditions: TGA at 10% weight loss
Procedure: as §1
Volitization/degradation of MILs as a function of temperature were measured using thermogravimetric analysis. The thermal stability of magnetic ionic liquids was measured from 40 to 350° C. at a ramp rate of 5° C. min^−1 by performing thermogravimetric analysis (TGA) using a NETZSCH STA 449 F1 Jupiter thermal analyzer (Selb, Germany).
To investigate the ability of DGE-based MILs to withstand elevated temperatures without undergoing degradation/decomposition, their thermal stabilities were investigated using thermogravimetric analysis (TGA). FIG. 13 through FIG. 27 display thermograms for MILs 1 to 15. The thermogram results are summarized in greater detail in the following paragraphs.

[6] = acetone, chloroform, dichloromethane, acetonitrile, methanol, ethanol, diethyl ether, ethyl acetate, isopropanol at 20% (w/v)
[7] = hexane, heptane, benzene, toluene at 10% (w/v)
[8] = hexane, heptane, benzene, toluene at 20% (w/v)
[9] = twelve organic solvents (without acetonitrile) at 50% (w/v)

| Compound | Viscosity (cP) [1] [cP] | μeff, effective magnetic moment [2] [μB] | Solubility [3, 6] | Solubility [3, 7] | Solubility [3, 8] | Solubility [3, 9] | Solubility ([3]; water at 0.01% (w/v)) | Onset of MIL volatilization (° C.)^1 [4] [°C] | Onset of MIL volatilization (° C.)^2 [5] [°C] | Solubility ([3]; acetonitrile at 50% (w/v)) | Onset of MIL volatilization (° C.)^1 ([4]; listed as [Co(C8-DGE)6][Gd(hfacac)4]2) | Onset of MIL volatilization (° C.)^1 ([4]; listed as [Co(C8-DGE)6][Ho(hfacac)4]2) |
| --- | --- | --- | --- | --- | --- | --- | --- | --- | --- | --- | --- | --- |
| CCCCCCCCOC(=O)COCC(=O)OCCCCCCCC.CCCCCCCCOC(=O)COCC(=O)OCCCCCCCC.CCCCCCCCOC(=O)COCC(=O)OCCCCCCCC.CCCCCCCCOC(=O)COCC(=O)OCCCCCCCC.CCCCCCCCOC(=O)COCC(=O)OCCCCCCCC.CCCCCCCCOC(=O)COCC(=O)OCCCCCCCC.O=C(C=C([O-])C(F)(F)F)C(F)(F)F.O=C(C=C([O-])C(F)(F)F)C(F)(F)F.O=C(C=C([O-])C(F)(F)F)C(F)(F)F.O=C(C=C([O-])C(F)(F)F)C(F)(F)F.O=C(C=C([O-])C(F)(F)F)C(F)(F)F.O=C(C=C([O-])C(F)(F)F)C(F)(F)F.O=C(C=C([O-])C(F)(F)F)C(F)(F)F.O=C(C=C([O-])C(F)(F)F)C(F)(F)F.[Co+2].[Gd+3].[Gd+3] [compound 14] | 149.1 | 12.43 | S^b (soluble in acetone, chloroform, dichloromethane, acetonitrile, methanol, ethanol, diethyl ether, ethyl acetate, and isopropanol at 20% (w/v).) | S^a (soluble in hexane, heptane, benzene, and toluene at 10% (w/v).) | S^c (soluble in hexane, heptane, benzene, and toluene at 20% (w/v).) | S^d (soluble in acetone, chloroform, dichloromethane, methanol, ethanol, diethyl ether, ethyl acetate, isopropanol hexane, heptane, benzene, and toluene at 50% (w/v).) | S^f (insoluble in water at 0.01% (w/v).) | 126 | 172.9 | – | – | – |
| CCCCCCCCOC(=O)COCC(=O)OCCCCCCCC.CCCCCCCCOC(=O)COCC(=O)OCCCCCCCC.CCCCCCCCOC(=O)COCC(=O)OCCCCCCCC.CCCCCCCCOC(=O)COCC(=O)OCCCCCCCC.CCCCCCCCOC(=O)COCC(=O)OCCCCCCCC.CCCCCCCCOC(=O)COCC(=O)OCCCCCCCC.O=C(C=C([O-])C(F)(F)F)C(F)(F)F.O=C(C=C([O-])C(F)(F)F)C(F)(F)F.O=C(C=C([O-])C(F)(F)F)C(F)(F)F.O=C(C=C([O-])C(F)(F)F)C(F)(F)F.O=C(C=C([O-])C(F)(F)F)C(F)(F)F.O=C(C=C([O-])C(F)(F)F)C(F)(F)F.[Co+2].[Co+2].[Co+2] [compound 4] | 31.6 | 8.57 | S^b (soluble in acetone, chloroform, dichloromethane, acetonitrile, methanol, ethanol, diethyl ether, ethyl acetate, and isopropanol at 20% (w/v).) | S^a (soluble in hexane, heptane, benzene, and toluene at 10% (w/v).) | S^c (soluble in hexane, heptane, benzene, and toluene at 20% (w/v).) | S^d (soluble in acetone, chloroform, dichloromethane, methanol, ethanol, diethyl ether, ethyl acetate, isopropanol hexane, heptane, benzene, and toluene at 50% (w/v).) | S^f (insoluble in water at 0.01% (w/v).) | 185 | 262.9 | – | – | – |
| O=C(C=C([O-])C(F)(F)F)C(F)(F)F.O=C(C=C([O-])C(F)(F)F)C(F)(F)F.O=C(C=C([O-])C(F)(F)F)C(F)(F)F.O=C(C=C([O-])C(F)(F)F)C(F)(F)F.O=C(C=C([O-])C(F)(F)F)C(F)(F)F.O=C(C=C([O-])C(F)(F)F)C(F)(F)F.O=C(COCC(=O)OC1CCCCC1)OC1CCCCC1.O=C(COCC(=O)OC1CCCCC1)OC1CCCCC1.O=C(COCC(=O)OC1CCCCC1)OC1CCCCC1.O=C(COCC(=O)OC1CCCCC1)OC1CCCCC1.O=C(COCC(=O)OC1CCCCC1)OC1CCCCC1.O=C(COCC(=O)OC1CCCCC1)OC1CCCCC1.[Co+2].[Co+2].[Co+2] [compound 7] | 639.4 | 8.11 | S^b (soluble in acetone, chloroform, dichloromethane, acetonitrile, methanol, ethanol, diethyl ether, ethyl acetate, and isopropanol at 20% (w/v).) | S^a (soluble in hexane, heptane, benzene, and toluene at 10% (w/v).) | S^c (soluble in hexane, heptane, benzene, and toluene at 20% (w/v).) | S^d (soluble in acetone, chloroform, dichloromethane, methanol, ethanol, diethyl ether, ethyl acetate, isopropanol hexane, heptane, benzene, and toluene at 50% (w/v).) | S^f (insoluble in water at 0.01% (w/v).) | 133 | 200.1 | S^e (insoluble in acetonitrile at 50% (w/v).) | – | – |
| CCCCCCOC(=O)COCC(=O)OCCCCCC.CCCCCCOC(=O)COCC(=O)OCCCCCC.CCCCCCOC(=O)COCC(=O)OCCCCCC.CCCCCCOC(=O)COCC(=O)OCCCCCC.CCCCCCOC(=O)COCC(=O)OCCCCCC.CCCCCCOC(=O)COCC(=O)OCCCCCC.O=C(C=C([O-])C(F)(F)F)C(F)(F)F.O=C(C=C([O-])C(F)(F)F)C(F)(F)F.O=C(C=C([O-])C(F)(F)F)C(F)(F)F.O=C(C=C([O-])C(F)(F)F)C(F)(F)F.O=C(C=C([O-])C(F)(F)F)C(F)(F)F.O=C(C=C([O-])C(F)(F)F)C(F)(F)F.[Co+2].[Co+2].[Co+2] [MIL 1] | 175.0 | – | – | – | – | – | – | – | – | – | – | – |
| CCCCCCCCOC(=O)COCC(=O)OCCCCCCCC.CCCCCCCCOC(=O)COCC(=O)OCCCCCCCC.CCCCCCCCOC(=O)COCC(=O)OCCCCCCCC.CCCCCCCCOC(=O)COCC(=O)OCCCCCCCC.CCCCCCCCOC(=O)COCC(=O)OCCCCCCCC.CCCCCCCCOC(=O)COCC(=O)OCCCCCCCC.O=C(C=C([O-])C(F)(F)F)C(F)(F)F.O=C(C=C([O-])C(F)(F)F)C(F)(F)F.O=C(C=C([O-])C(F)(F)F)C(F)(F)F.O=C(C=C([O-])C(F)(F)F)C(F)(F)F.O=C(C=C([O-])C(F)(F)F)C(F)(F)F.O=C(C=C([O-])C(F)(F)F)C(F)(F)F.O=C(C=C([O-])C(F)(F)F)C(F)(F)F.O=C(C=C([O-])C(F)(F)F)C(F)(F)F.[Co+2].[Gd+3].[Gd+3] [MIL 14] | – | – | – | – | – | – | – | – | – | – | approximately 120 °C | – |
| CCCCCCCCOC(=O)COCC(=O)OCCCCCCCC.CCCCCCCCOC(=O)COCC(=O)OCCCCCCCC.CCCCCCCCOC(=O)COCC(=O)OCCCCCCCC.CCCCCCCCOC(=O)COCC(=O)OCCCCCCCC.CCCCCCCCOC(=O)COCC(=O)OCCCCCCCC.CCCCCCCCOC(=O)COCC(=O)OCCCCCCCC.O=C(C=C([O-])C(F)(F)F)C(F)(F)F.O=C(C=C([O-])C(F)(F)F)C(F)(F)F.O=C(C=C([O-])C(F)(F)F)C(F)(F)F.O=C(C=C([O-])C(F)(F)F)C(F)(F)F.O=C(C=C([O-])C(F)(F)F)C(F)(F)F.O=C(C=C([O-])C(F)(F)F)C(F)(F)F.O=C(C=C([O-])C(F)(F)F)C(F)(F)F.O=C(C=C([O-])C(F)(F)F)C(F)(F)F.[Co+2].[Ho+3].[Ho+3] [MIL 15] | – | – | – | – | – | – | – | – | – | – | – | approximately 120 °C |

From US20240401154A1, “SYNTHESIS AND PREPARATION OF ULTRA-LOW VISCOSITY AND HIGH MAGNETIC SUSCEPTIBILITY MAGNETIC IONIC LIQUIDS” (priority 2023, published 2024)
